# Source: publication PMC10004634 (PLOS ONE, 2023)
# Read-outs that look alike come from different tables or passages of the source.
# Assays:
# Experiment in all cases: biochemical
# Design in all cases: KINOMEscan scanMAX competition binding, DNA-tagged kinases, qPCR read-out, percent control at 300 nM
# MKNK1 = MKNK1 (Homo sapiens, UniProt Q9BUB5)
# PIK3CA(I800L) = PIK3CA(I800L) (Homo sapiens, UniProt P42336, I800L)
# WEE1 = WEE1 (Homo sapiens, UniProt P30291)
# KIT(D816H) = KIT(D816H) (Homo sapiens, UniProt P10721, D816H)
# RIPK2 = RIPK2 (Homo sapiens, UniProt O43353)
# PKN1 = PKN1 (Homo sapiens, UniProt Q16512)
# FLT3(R834Q) = target: T1, FLT3(R834Q) (Homo sapiens, UniProt P36888, R834Q)
# T1 sequence (P36888 1-993 R834Q): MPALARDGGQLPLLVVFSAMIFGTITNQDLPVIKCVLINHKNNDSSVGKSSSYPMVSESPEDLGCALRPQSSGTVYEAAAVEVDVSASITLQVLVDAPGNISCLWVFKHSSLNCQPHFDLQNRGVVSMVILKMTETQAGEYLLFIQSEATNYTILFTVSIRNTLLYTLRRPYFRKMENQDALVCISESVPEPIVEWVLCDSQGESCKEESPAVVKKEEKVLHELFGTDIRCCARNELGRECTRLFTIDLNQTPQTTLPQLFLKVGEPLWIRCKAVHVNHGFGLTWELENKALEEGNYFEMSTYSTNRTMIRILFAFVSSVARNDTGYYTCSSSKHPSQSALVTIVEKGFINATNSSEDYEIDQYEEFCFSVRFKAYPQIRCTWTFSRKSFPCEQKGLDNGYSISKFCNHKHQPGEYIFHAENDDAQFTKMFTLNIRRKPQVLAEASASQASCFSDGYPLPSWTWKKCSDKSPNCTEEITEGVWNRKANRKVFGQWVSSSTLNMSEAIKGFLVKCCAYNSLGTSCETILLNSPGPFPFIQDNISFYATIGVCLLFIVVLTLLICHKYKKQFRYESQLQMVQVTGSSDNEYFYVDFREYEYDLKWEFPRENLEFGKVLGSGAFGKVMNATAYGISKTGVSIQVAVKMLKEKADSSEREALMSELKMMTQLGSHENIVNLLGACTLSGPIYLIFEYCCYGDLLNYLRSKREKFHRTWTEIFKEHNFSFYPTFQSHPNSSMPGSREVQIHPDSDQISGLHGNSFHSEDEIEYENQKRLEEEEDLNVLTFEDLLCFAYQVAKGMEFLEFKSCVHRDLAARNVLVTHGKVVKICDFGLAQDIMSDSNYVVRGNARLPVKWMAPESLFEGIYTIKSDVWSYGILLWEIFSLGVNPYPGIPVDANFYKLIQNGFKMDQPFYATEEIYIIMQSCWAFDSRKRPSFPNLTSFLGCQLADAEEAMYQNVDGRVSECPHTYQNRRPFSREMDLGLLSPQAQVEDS
# ROS1 = ROS1 (Homo sapiens, UniProt P08922)
# AAK1 = AAK1 (Homo sapiens, UniProt Q2M2I8)
# NEK3 = target: T2, NEK3 (Homo sapiens, UniProt P51956)
# T2 sequence (P51956 1-506): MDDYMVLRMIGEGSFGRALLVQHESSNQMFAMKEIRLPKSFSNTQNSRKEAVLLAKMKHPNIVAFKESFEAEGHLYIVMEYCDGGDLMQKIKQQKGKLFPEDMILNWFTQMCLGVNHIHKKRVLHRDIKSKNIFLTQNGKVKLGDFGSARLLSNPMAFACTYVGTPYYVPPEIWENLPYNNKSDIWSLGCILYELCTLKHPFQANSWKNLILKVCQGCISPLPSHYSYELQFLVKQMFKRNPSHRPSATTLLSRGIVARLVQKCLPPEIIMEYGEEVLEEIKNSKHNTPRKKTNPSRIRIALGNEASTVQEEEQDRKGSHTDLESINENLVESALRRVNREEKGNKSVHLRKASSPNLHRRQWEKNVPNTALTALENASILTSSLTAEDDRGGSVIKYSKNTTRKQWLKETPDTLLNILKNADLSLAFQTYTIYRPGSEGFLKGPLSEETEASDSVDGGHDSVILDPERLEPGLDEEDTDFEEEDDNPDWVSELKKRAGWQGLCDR
# [1] = read-out: Percent control / Tirabrutinib
# [2] = read-out: Percent control / Zanubrutinib
# [3] = read-out: Percent control / Acalabrutinib
# [4] = read-out: Percent control / Ibrutinib
# Chain of RIPK2 (O43353 whole entry): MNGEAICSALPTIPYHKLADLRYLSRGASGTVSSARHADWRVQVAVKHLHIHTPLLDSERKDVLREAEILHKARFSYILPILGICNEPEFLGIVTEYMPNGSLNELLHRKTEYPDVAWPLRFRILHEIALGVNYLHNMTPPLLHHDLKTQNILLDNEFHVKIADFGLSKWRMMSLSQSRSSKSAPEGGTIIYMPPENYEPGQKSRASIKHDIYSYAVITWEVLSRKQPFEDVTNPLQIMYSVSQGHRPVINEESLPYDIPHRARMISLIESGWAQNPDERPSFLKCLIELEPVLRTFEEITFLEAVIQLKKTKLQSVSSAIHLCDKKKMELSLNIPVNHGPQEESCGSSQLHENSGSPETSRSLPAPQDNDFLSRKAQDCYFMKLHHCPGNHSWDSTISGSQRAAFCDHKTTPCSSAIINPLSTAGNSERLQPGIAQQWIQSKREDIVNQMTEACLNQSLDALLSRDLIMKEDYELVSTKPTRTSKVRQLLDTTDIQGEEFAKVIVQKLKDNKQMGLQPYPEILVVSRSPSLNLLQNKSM
# Chain of KIT(D816H) (P10721 whole entry D816H): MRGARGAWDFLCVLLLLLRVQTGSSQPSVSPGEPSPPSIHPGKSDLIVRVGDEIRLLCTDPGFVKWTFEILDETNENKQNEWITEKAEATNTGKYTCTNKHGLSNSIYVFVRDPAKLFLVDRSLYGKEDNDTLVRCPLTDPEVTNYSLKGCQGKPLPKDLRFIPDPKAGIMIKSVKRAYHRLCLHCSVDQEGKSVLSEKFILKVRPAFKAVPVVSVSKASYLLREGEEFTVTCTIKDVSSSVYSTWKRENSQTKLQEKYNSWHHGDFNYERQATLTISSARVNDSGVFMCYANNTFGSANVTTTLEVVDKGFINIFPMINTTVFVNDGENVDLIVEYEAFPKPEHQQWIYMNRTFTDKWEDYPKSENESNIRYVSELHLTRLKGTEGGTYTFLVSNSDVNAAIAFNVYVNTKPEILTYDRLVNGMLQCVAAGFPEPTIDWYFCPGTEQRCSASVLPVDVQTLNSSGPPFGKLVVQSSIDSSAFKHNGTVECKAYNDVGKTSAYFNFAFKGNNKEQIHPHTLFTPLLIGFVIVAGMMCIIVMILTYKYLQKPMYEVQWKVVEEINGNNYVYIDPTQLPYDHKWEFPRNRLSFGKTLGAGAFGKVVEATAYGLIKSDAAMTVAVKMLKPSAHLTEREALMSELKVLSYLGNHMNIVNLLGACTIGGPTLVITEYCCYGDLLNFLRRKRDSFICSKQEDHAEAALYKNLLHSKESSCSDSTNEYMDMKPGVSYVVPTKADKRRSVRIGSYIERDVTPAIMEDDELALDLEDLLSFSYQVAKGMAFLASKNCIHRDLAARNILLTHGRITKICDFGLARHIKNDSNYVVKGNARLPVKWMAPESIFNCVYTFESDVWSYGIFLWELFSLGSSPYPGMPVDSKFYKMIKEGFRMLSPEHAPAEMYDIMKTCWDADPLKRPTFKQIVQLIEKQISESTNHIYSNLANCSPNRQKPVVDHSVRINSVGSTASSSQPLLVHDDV
# Chain of ROS1 (P08922 whole entry): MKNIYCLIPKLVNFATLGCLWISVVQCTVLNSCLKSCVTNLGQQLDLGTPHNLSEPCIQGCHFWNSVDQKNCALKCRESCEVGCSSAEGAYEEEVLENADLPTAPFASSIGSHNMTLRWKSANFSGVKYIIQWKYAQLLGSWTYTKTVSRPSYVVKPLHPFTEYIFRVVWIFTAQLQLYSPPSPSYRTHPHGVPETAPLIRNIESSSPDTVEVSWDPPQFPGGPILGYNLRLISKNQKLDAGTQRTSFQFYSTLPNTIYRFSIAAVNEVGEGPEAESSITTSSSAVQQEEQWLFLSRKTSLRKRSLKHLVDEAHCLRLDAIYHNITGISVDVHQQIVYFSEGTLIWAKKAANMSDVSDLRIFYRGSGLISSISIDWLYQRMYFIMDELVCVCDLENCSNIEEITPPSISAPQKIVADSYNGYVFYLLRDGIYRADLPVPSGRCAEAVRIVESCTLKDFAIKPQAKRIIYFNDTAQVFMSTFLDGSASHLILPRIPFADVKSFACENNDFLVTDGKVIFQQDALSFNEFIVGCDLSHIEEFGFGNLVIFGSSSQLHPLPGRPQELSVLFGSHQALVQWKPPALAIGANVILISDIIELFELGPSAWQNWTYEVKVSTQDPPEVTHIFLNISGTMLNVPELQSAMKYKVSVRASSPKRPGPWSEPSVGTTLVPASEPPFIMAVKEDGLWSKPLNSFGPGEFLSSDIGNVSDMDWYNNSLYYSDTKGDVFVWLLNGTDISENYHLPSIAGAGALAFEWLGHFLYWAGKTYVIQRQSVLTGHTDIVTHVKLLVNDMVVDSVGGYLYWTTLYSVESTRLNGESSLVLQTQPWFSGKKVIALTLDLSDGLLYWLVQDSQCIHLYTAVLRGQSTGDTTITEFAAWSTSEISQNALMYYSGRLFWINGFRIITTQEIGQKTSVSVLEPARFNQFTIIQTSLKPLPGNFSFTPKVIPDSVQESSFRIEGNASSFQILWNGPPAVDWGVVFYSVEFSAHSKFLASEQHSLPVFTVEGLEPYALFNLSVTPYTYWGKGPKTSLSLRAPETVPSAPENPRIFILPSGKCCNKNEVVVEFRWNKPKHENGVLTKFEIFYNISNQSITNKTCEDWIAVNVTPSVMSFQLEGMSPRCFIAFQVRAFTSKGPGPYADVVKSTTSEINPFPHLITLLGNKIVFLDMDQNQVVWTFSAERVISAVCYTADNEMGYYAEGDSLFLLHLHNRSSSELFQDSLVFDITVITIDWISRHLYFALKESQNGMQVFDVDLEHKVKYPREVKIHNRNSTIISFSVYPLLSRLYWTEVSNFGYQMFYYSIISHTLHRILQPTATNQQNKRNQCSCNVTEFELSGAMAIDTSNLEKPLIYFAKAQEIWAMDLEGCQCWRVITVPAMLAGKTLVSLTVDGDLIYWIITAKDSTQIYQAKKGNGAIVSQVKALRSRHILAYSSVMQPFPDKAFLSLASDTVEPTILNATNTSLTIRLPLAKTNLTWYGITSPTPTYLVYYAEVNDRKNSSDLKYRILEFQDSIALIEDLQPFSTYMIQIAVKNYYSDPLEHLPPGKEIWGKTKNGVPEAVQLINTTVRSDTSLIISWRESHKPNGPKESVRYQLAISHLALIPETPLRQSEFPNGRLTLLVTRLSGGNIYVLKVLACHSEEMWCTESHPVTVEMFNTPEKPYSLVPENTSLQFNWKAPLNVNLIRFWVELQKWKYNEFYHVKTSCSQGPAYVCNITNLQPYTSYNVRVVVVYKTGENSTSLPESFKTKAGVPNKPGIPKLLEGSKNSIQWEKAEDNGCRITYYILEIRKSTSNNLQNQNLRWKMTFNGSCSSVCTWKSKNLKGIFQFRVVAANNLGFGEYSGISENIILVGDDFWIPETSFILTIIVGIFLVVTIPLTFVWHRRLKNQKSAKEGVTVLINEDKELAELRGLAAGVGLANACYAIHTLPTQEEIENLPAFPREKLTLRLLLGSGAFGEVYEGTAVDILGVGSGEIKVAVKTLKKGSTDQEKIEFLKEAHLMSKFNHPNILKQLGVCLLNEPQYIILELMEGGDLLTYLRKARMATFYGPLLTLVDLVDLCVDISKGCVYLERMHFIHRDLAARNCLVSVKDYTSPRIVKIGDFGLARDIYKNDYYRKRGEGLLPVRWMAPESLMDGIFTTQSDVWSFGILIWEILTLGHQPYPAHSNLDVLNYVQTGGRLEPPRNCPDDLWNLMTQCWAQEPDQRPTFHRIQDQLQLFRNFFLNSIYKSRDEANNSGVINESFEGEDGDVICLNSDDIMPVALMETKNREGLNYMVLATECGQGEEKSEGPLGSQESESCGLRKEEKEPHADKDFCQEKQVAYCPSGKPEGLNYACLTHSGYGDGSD
# Chain of PIK3CA(I800L) (P42336 whole entry I800L): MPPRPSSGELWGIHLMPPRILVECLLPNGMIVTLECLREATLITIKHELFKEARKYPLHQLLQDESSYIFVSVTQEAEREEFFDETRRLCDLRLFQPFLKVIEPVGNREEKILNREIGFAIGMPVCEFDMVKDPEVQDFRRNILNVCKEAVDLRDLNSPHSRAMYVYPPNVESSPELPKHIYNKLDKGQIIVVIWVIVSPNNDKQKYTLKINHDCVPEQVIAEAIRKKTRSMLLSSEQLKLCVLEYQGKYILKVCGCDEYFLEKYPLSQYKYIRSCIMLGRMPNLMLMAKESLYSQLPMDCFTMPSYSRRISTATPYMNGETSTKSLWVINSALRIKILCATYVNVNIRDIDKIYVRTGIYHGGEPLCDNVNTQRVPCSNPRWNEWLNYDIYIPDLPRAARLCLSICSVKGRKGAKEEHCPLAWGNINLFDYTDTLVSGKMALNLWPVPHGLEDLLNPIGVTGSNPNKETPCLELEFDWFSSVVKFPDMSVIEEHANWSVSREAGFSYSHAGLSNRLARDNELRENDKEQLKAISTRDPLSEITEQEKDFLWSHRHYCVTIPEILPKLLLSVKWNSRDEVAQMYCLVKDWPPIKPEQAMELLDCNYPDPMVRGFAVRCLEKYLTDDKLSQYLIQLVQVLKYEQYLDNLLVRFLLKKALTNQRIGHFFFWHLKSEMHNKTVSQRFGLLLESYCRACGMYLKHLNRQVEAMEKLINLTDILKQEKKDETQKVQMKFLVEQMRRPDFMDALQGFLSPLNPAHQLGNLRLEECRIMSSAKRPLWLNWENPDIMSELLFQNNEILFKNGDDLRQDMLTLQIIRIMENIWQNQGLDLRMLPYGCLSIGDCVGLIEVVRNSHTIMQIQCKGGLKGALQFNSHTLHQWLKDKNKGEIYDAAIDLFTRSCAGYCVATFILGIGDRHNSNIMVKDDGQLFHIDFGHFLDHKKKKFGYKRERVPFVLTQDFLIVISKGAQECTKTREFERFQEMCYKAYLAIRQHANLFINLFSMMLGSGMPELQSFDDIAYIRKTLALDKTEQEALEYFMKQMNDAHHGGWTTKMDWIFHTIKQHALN
compound,measurement,setting,value
CC#CC(=O)N1CC[C@@H](n2c(=O)n(-c3ccc(Oc4ccccc4)cc3)c3c(N)ncnc32)C1 [Tirabrutinib],remaining binding at 0.3 µM,MKNK1; [1],87%
same,remaining binding at 0.3 µM,PIK3CA(I800L); [1],91%
same,remaining binding at 0.3 µM,WEE1; [1],93%
same,remaining binding at 0.3 µM,KIT(D816H); [1],84%
same,remaining binding at 0.3 µM,RIPK2; [1],33%
same,remaining binding at 0.3 µM,PKN1; [1],99%
same,remaining binding at 0.3 µM,FLT3(R834Q); [1],81%
same,remaining binding at 0.3 µM,ROS1; [1],94%
same,remaining binding at 0.3 µM,AAK1; [1],57%
C=CC(=O)N1CCC([C@@H]2CCNc3c(C(N)=O)c(-c4ccc(Oc5ccccc5)cc4)nn32)CC1 [Zanubrutinib],remaining binding at 0.3 µM,MKNK1; [2],100%
same,remaining binding at 0.3 µM,PIK3CA(I800L); [2],68%
same,remaining binding at 0.3 µM,WEE1; [2],100%
same,remaining binding at 0.3 µM,KIT(D816H); [2],96%
same,remaining binding at 0.3 µM,NEK3; [2],100%
same,remaining binding at 0.3 µM,PKN1; [2],100%
same,remaining binding at 0.3 µM,FLT3(R834Q); [2],93%
same,remaining binding at 0.3 µM,ROS1; [2],100%
same,remaining binding at 0.3 µM,AAK1; [2],96%
CC#CC(=O)N1CCC[C@H]1c1nc(-c2ccc(C(=O)Nc3ccccn3)cc2)c2c(N)nccn12 [Acalabrutinib],remaining binding at 0.3 µM,MKNK1; [3],84%
same,remaining binding at 0.3 µM,WEE1; [3],80%
same,remaining binding at 0.3 µM,KIT(D816H); [3],82%
same,remaining binding at 0.3 µM,RIPK2; [3],79%
same,remaining binding at 0.3 µM,NEK3; [3],95%
same,remaining binding at 0.3 µM,PKN1; [3],81%
same,remaining binding at 0.3 µM,ROS1; [3],86%
same,remaining binding at 0.3 µM,AAK1; [3],94%
C=CC(=O)N1CCC[C@@H](n2nc(-c3ccc(Oc4ccccc4)cc3)c3c(N)ncnc32)C1 [Ibrutinib],remaining binding at 0.3 µM,MKNK1; [4],89%
same,remaining binding at 0.3 µM,PIK3CA(I800L); [4],71%
same,remaining binding at 0.3 µM,WEE1; [4],89%
same,remaining binding at 0.3 µM,RIPK2; [4],6.4%
same,remaining binding at 0.3 µM,NEK3; [4],99%
same,remaining binding at 0.3 µM,FLT3(R834Q); [4],55%
